Earlier results on 3 compounds are cited in patent publication US10881492B2, “Oral care compositions and regimens” (The Procter & Gamble Company, priority 2014, dated 2021).

For this data set the following is noted: concentration level where the cooling effect can be clearly recognized.
For the compound `CC(C)[C@@H]1CC[C@@H](C)C[C@H]1O` [L-menthol], the cooling threshold entry is listed as “about 800 ppb”. As for `CC(C)[C@@H]1CC[C@@H](C)C[C@@H]1O` [Example 1-neomenthol, 1-neomenthol], the cooling threshold result is reported as “about 3,000 ppb”.

On to `CC(C)[C@@H]1CC[C@@H](C)C[C@@H]1O` [d-neomenthol], for which the cooling threshold result is on record as “about 25,000 ppb”.
